# Experimental data: article PMC9823097, “Dysregulation of PRMT5 in chronic lymphocytic leukemia promotes progression with high risk of Richter’s transformation” (Nature Communications, 2023)
# Where “and” joins values, the source holds several entries; their conditions need not be identical. Equal entries are not always repeated. Entries after “also recorded” stand apart in the source; their conditions may differ. Where two headings read alike, the source gives them in different places.
# Key:
# [1] = test system: leukemia and lymphoma cell lines; assay: Proliferation of a panel of leukemia and B-lymphoma cell lines, 72 h, MTS assay; assay type: cell-based; conditions: for IC50: CCMCL-1, JVM-2, U-2932, RL, and KARPAS-422, read-out: Anti-proliferative IC50 values, range over cell lines
# Procedure: (§1) Cell proliferation was assessed via MTS (3-[4,5-dimethylthiazol-2-yl]-5-[3-carboxymethoxyphenyl]-2-[4-sulfophenyl]-2H-tetrazolium) assay (Sigma), using the tetrazolium dye […]. Cell apoptosis was evaluated by Annexin V-FITC or PE and propidium iodide (PI) staining using FC500 cytometer (Beckman-Coulter, Indianapolis, IN) following the manufacturer’s procedure (BD Pharmingen, Billerica, MA)[55]. For cell cycle analysis, cells were fixed with cold ethanol overnight and then stained before analysis with 30 μg/mL propidium iodide (Invitrogen) and 200 μg/mL RNase (Sigma-Aldrich) in 0.1 % v/v Triton X-100 (Sigma-Aldrich). Cell cycle data analysis was performed using ModFit LT software (Verity Software House, Topsham, ME).
# [2] = Pharmacokinetic study, oral gavage to CD-1 mice, blood analyzed by LC-MS/MS; assay type: in vivo; conditions: for peak plasma level: WT CD-1 mice; for DNAUC / blood concentration at time point 0.25 / blood concentration at time point 0.5 / blood concentration at time point 1 h / blood concentration at time point 2 h / blood concentration at time point 4 h / blood concentration at time point 8 h / blood concentration at time point 12 h / blood concentration at time point 24 h / AUC / AUC(0-t) / Cmax / MRT / Tmax / half-life: 1d-single dose, male CD-1 mice, fed, blood analysis; for DNAUC / AUC / AUC(0-t) / Cmax / MRT / Tmax / half-life: 0.5%CMC+0.5%Tween80; for AUC / AUC(0-t) / Cmax / MRT / Tmax / half-life: mouse, whole blood, po
# Procedure: For in vitro assays, the compound was stored in a 10 mM solution in DMSO. […] […] Blood was collected at various time points after dosing into EDTA-K2 tubes, placed on ice, and stored at −80 °C prior to analysis by LC-MS/MS. For biochemical potency and selectivity, PRT382 was solubilized in 100% DMSO and diluted serially threefold. For assessment of selectivity, enzyme activity against a panel of 37 methyltransferases was evaluated using 3H-SAM as a radioligand probe with filtration binding. PRT382 was tested in duplicate at a final concentration of 10 µM. The percent of enzyme activity relative to DMSO control condition was determined for each enzyme.
# Mec-1 CLL cell line = assay: Global symmetric dimethyl arginine (SDMA) western blot, Mec-1; assay type: cell-based; conditions: Mec-1, 72 h treatment
# From the text: Proteins extracted from whole-cell lysates were resolved by SDS-PAGE and transferred on nitrocellulose membrane as previously described. CpG685 oligonucleotide was obtained from the OSU Cytogenetics Core Lab. Antibodies used for immunoblots included anti-human PRMT5 (Abcam #ab109451), GAPDH (Millipore Sigma #MAB374), SDMA (Cell Signaling Technology #13222), c-Myc (Cell Signaling Technology #5605S), and β-Actin (Cell Signaling Technology #4967S). Cas9-mediated doxycycline-inducible knockout of PRMT5 utilized a targeted sgRNA (guide sequence: […], PAM: GGG).
# primary CLL cells = assay: Proliferation of primary IGHV-U CLL cells, MTS assay, 72 h, with and without CpG; assay type: cell-based, human; conditions: for Normalized A490: +CpG, individual patients' primary CLL cells, normalized to -CpG dose 0
# From the text: Our research complies with all relevant ethical regulations. De-identified human CLL cells were isolated as previously described after obtaining informed consent on protocols approved by The Ohio State University Cancer Institutional Review Board in accordance with the Declaration of Helsinki. All patients examined had CLL as defined by the 2008 IWCLL criteria. Sex and age of the patients who provided samples was not available. Human peripheral blood mononuclear cells (PBMC) were isolated from CLL patients using Ficoll density gradient centrifugation. (Ficoll-Paque Plus; Amersham Biosciences Inc, Piscataway, NJ). Enriched B-cell fractions were prepared using the RosetteSep™ B-cell kit (STEMCELL Technologies, Vancouver, Canada) according to the manufacturer’s instructions. Isolated cells were incubated in RPMI 1640 media (Invitrogen, Grand Island, NY) supplemented with 10% heat-inactivated fetal bovine serum (Sigma-Aldrich, St. Louis, MO), 2 mM L-glutamine (Invitrogen), and 100 U/mL penicillin/100 μg/mL streptomycin (Sigma-Aldrich) at 37 °C in an atmosphere of 5% CO2. The purity of enriched populations of CLL was routinely checked using CD19-PE (BD Pharmingen, Billerica, MA) staining by flow cytometry.
# as §1
compound,measurement,setting,value
"CON=c1nc[nH]c2c1ccn2[C@@H]1O[C@H]([C@H](O)c2ccc(Cl)c(Cl)c2)[C@@H](O)[C@H]1O.Cl [PRT382, (2 R,3 S,4 R,5 R)-2-[(R)-(3,4-dichlorophenyl)-hydroxy-methyl]-5-[(4Z)-4-methoxyimino-1H-pyrrolo[2,3-d]pyrimidin-7-yl]tetrahydrofuran-3,4-diol hydrochloride]","proliferation relative to DMSO (=1), Figure 6F","[1]; CCMCL, 1e-9 M",0.94
same,"proliferation relative to DMSO (=1), Figure 6F","[1]; CCMCL, 1e-8 M",0.93
same,"proliferation relative to DMSO (=1), Figure 6F","[1]; CCMCL, 1e-7 M",0.55
same,"proliferation relative to DMSO (=1), Figure 6F","[1]; CCMCL, 1e-6 M",0.13
same,"proliferation relative to DMSO (=1), Figure 6F","[1]; CCMCL, 1e-5 M",0.12
same,IC50,[1]; earlier manuscript text quoted in the peer review file,10 to 100 nM
same,IC50,[1],10 to 500 nM
same,"proliferation relative to DMSO (=1), Figure 6F","[1]; Jeko, 1e-9 M",1
same,"proliferation relative to DMSO (=1), Figure 6F","[1]; Jeko, 1e-8 M",0.98
same,"proliferation relative to DMSO (=1), Figure 6F","[1]; Jeko, 1e-7 M",0.96
same,"proliferation relative to DMSO (=1), Figure 6F","[1]; Jeko, 1e-6 M",0.13
same,"proliferation relative to DMSO (=1), Figure 6F","[1]; Jeko, 1e-5 M",0.14
same,"proliferation relative to DMSO (=1), Figure 6F","[1]; Pfeiffer, 1e-9 M",0.99
same,"proliferation relative to DMSO (=1), Figure 6F","[1]; Pfeiffer, 1e-8 M",1
same,"proliferation relative to DMSO (=1), Figure 6F","[1]; Pfeiffer, 1e-7 M",0.76
same,"proliferation relative to DMSO (=1), Figure 6F","[1]; Pfeiffer, 1e-6 M",0.18
same,"proliferation relative to DMSO (=1), Figure 6F","[1]; Pfeiffer, 1e-5 M",0.22
same,"proliferation relative to DMSO (=1), Figure 6F","[1]; SU-DHL-4, 1e-9 M",1
same,"proliferation relative to DMSO (=1), Figure 6F","[1]; SU-DHL-4, 1e-8 M",1
same,"proliferation relative to DMSO (=1), Figure 6F","[1]; SU-DHL-4, 1e-7 M",0.79
same,"proliferation relative to DMSO (=1), Figure 6F","[1]; SU-DHL-4, 1e-6 M",0.13
same,"proliferation relative to DMSO (=1), Figure 6F","[1]; SU-DHL-4, 1e-5 M",0.15
same,peak plasma level,[2]; 10 mg/kg oral,12 µM
same,DNAUC,[2]; 10 mg/kg,1180 kg·ng·h/mL/mg
same,blood concentration at time point 0.25,[2]; 10 mg/kg,2530
same,blood concentration at time point 0.5,[2]; 10 mg/kg,3240
same,blood concentration at time point 1 h,[2]; 10 mg/kg,2973
same,blood concentration at time point 2 h,[2]; 10 mg/kg,1733
same,blood concentration at time point 4 h,[2]; 10 mg/kg,908
same,blood concentration at time point 8 h,[2]; 10 mg/kg,530
same,blood concentration at time point 12 h,[2]; 10 mg/kg,46
same,blood concentration at time point 24 h,[2]; 10 mg/kg,0 ng/mL
same,peak plasma level,[2]; 30 mg/kg oral,32 µM
same,DNAUC,[2]; 30 mg/kg,763 kg·ng·h/mL/mg
same,blood concentration at time point 0.25,[2]; 30 mg/kg,3753
same,blood concentration at time point 0.5,[2]; 30 mg/kg,4560
same,blood concentration at time point 1 h,[2]; 30 mg/kg,4613
same,blood concentration at time point 2 h,[2]; 30 mg/kg,2990
same,blood concentration at time point 4 h,[2]; 30 mg/kg,2027
same,blood concentration at time point 8 h,[2]; 30 mg/kg,1350
same,blood concentration at time point 12 h,[2]; 30 mg/kg,138
same,blood concentration at time point 24 h,[2]; 30 mg/kg,0 ng/mL
same,peak plasma level,[2]; 100 mg/kg oral,75 µM
same,DNAUC,[2]; 100 mg/kg,1700 kg·ng·h/mL/mg
same,blood concentration at time point 0.25,[2]; 100 mg/kg,20267
same,blood concentration at time point 0.5,[2]; 100 mg/kg,25300
same,blood concentration at time point 1 h,[2]; 100 mg/kg,25500
same,blood concentration at time point 2 h,[2]; 100 mg/kg,21367
same,blood concentration at time point 4 h,[2]; 100 mg/kg,16300
same,blood concentration at time point 8 h,[2]; 100 mg/kg,10253
same,blood concentration at time point 12 h,[2]; 100 mg/kg,1753
same,blood concentration at time point 24 h,[2]; 100 mg/kg,7 ng/mL
same,AUC,[2]; 10 mg/kg,11700 ng·h/mL
same,AUC(0-t),[2]; 10 mg/kg,11600 ng·h/mL
same,Cmax,[2]; 10 mg/kg,3240 ng/mL
same,MRT,[2]; 10 mg/kg,3.34 h
same,Tmax,[2]; 10 mg/kg,0.5 h
same,half-life,[2]; 10 mg/kg,1.87 h
same,AUC,[2]; 30 mg/kg,22900 ng·h/mL
same,AUC(0-t),[2]; 30 mg/kg,22300 ng·h/mL
same,Cmax,[2]; 30 mg/kg,4670 ng/mL
same,MRT,[2]; 30 mg/kg,4 h
same,Tmax,[2]; 30 mg/kg,0.83 h
same,half-life,[2]; 30 mg/kg,2.25 h
same,AUC,[2]; 100 mg/kg,170000 ng·h/mL
same,AUC(0-t),[2]; 100 mg/kg,170000 ng·h/mL
same,Cmax,[2]; 100 mg/kg,25800 ng/mL
same,MRT,[2]; 100 mg/kg,4.6 h
same,Tmax,[2]; 100 mg/kg,0.67 h
same,half-life,[2]; 100 mg/kg,1.53 h
same,lowest dose with decrease in global SDMA residues,Mec-1 CLL cell line,100 nM
same,Normalized A490,primary CLL cells; PRT382 0.001 μM,3.307 and 4.074 and 2.806 and 1.916 and 4.967 and 4.310 and 1.926 and 2.473 and 1.595 and 1.924
same,Normalized A490,primary CLL cells; PRT382 0.010 μM,3.718 and 3.941 and 2.668 and 1.775 and 4.704 and 4.675 and 1.969 and 2.468 and 1.587
same,Normalized A490,primary CLL cells; PRT382 0.100 μM,3.022 and 3.734 and 2.874 and 1.799 and 4.461 and 3.405 and 1.501 and 2.532 and 1.373
same,Normalized A490,primary CLL cells; PRT382 1.000 μM,2.691 and 3.811 and 2.801 and 1.761 and 4.387 and 2.568 and 1.496 and 2.524 and 1.293
same,Normalized A490,primary CLL cells; PRT382 10.000 μM,1.699 and 2.509 and 3.622 and 2.474 and 1.561 and 4.249 and 2.269 and 1.136 and 2.309
same,proliferative potential of primary CLL cells,"primary CLL cells; n = 12 IGHV-U patients, 72 h, with and without TLR9 stimulation (CpG)",Dose-dependent decrease in proliferation; also recorded: dose-dependent reduction in proliferative potential
